Test results taken from patent EP4104902B1, “COMPOUNDS AND M[…] SAME” (priority 2020, dated 2021).
Like-named read-outs stand apart in the source and are kept apart here.

System: recombinant rabies virus 1088 strain expressing Gaussia Luciferase (GLuc) (1088/GLuc)
Assay type: cell-based

Compound	IC50 (read-out: Anti-rabies activity)	IC50 (read-out: IC50)
CC(C)CNC(=O)[C@@]12C[C@@H]3CN(Cc4ccc(F)cc4)[C@@H]([C@@H]3CN1)[C@H]2Cc1ccccc1 (relative stereo) [IF-653]	10 to 30 µM	–
CC(C)CNC(=O)[C@@]12C[C@@H]3CN(Cc4ccc(F)cc4)[C@@H]([C@@H]3CN1)[C@H]2CC(C)C (relative stereo) [IF-654]	< 5 µM	–
CC(C)CCNC(=O)[C@@]12C[C@@H]3CN(CCO)[C@@H]([C@@H]3CN1)[C@H]2Cc1ccccc1 (relative stereo) [IF-656]	10 to 30 µM	–
CC(C)CCNC(=O)[C@@]12C[C@@H]3CN(CCc4ccccc4)[C@@H]([C@@H]3CN1)[C@H]2CC(C)C (relative stereo) [IF-657]	< 5 µM	–
CC(C)CCNC(=O)[C@@]12C[C@@H]3CN(CC4CCCCC4)[C@@H]([C@@H]3CN1)[C@H]2Cc1ccccc1 (relative stereo) [IF-658]	< 5 µM	–
CC(C)CCNC(=O)[C@@]12C[C@@H]3CN(CC4CCCCC4)[C@@H]([C@@H]3CN1)[C@H]2CC(C)C (relative stereo) [IF-659]	10 to 30 µM	–
CC(C)CCNC(=O)[C@@]12C[C@@H]3CN(CCO)[C@@H]([C@@H]3CN1)[C@H]2Cc1cccc2ccccc12 (relative stereo) [IF-660]	10 to 30 µM	–
CC(C)CCNC(=O)[C@@]12C[C@@H]3CN(Cc4ccccc4)[C@@H]([C@@H]3CN1)[C@H]2Cc1ccccc1 (relative stereo) [IF-665]	< 5 µM	–
CC(C)CNC(=O)[C@@]12C[C@@H]3CN(Cc4ccccc4)[C@@H]([C@@H]3CN1)[C@H]2CCc1ccccc1 (relative stereo) [IF-670]	< 5 µM	–
CC(C)CCNC(=O)[C@@]12C[C@@H]3CN(CC(C)C)[C@@H]([C@@H]3CN1)[C@H]2CCc1ccccc1 (relative stereo) [IF-673]	< 5 µM	–
CC(C)CCNC(=O)[C@@]12C[C@@H]3CN(CC(C)C)[C@@H]([C@@H]3CN1)[C@H]2Cc1cccc2ccccc12 (relative stereo) [IF-674]	10 to 30 µM	–
CC(C)CC[C@@H]1[C@@H]2[C@@H]3CN[C@@]1(C(=O)NCc1ccccc1)C[C@@H]3CN2CC(C)C (relative stereo) [IF-675]	< 5 µM	–
CC(C)CNC(=O)[C@@]12C[C@@H]3CN(CC(C)C)[C@@H]([C@@H]3CN1)[C@H]2CCc1ccccc1 (relative stereo) [IF-679]	< 5 µM	–
CC(C)CNC(=O)[C@@]12C[C@@H]3CN(CC(C)C)[C@@H]([C@@H]3CN1)[C@H]2Cc1cccc2ccccc12 (relative stereo) [IF-680]	10 to 30 µM	–
CC(C)CCNC(=O)[C@@]12C[C@@H]3CN(Cc4ccc(O)cc4)[C@@H]([C@@H]3CN1)[C@H]2Cc1cccc2ccccc12 (relative stereo) [IF-684]	10 to 30 µM	–
CC(C)CCNC(=O)[C@@]12C[C@@H]3CN(Cc4ccccc4)[C@@H]([C@@H]3CN1)[C@H]2CC(C)C (relative stereo) [IF-691]	10 to 30 µM	–
CCCCCCNC(=O)[C@@]12C[C@@H]3CN(Cc4ccccc4)[C@@H]([C@@H]3CN1)[C@H]2Cc1ccc(O)cc1 (relative stereo) [IF-692]	< 5 µM	–
CC(C)C[C@@H]1[C@@H]2[C@@H]3CN[C@@]1(C(=O)NCCC(N)=O)C[C@@H]3CN2CCc1ccccc1 (relative stereo) [IF-699]	10 to 30 µM	–
CC(C)CCN1C[C@H]2C[C@]3(C(=O)NCc4cccc5ccccc45)NC[C@H]2[C@H]1[C@H]3CC(C)C (relative stereo) [IF-705]	< 5 µM	–

Compound	IC50 (read-out: Anti-rabies activity)	IC50 (read-out: IC50)
CC(C)CCN1C[C@H]2C[C@]3(C(=O)NCc4cccc5ccccc45)NC[C@H]2[C@H]1[C@H]3Cc1ccc(O)cc1 (relative stereo) [IF-706]	< 5 µM	–
CC(C)CCNC(=O)[C@@]12C[C@@H]3CN(CCc4ccccc4)[C@@H]([C@@H]3CN1)[C@H]2Cc1ccc(O)cc1 (relative stereo) [IF-707]	< 5 µM	–
O=C(NCCc1ccccc1)[C@@]12C[C@@H]3CN(Cc4cccc5ccccc45)[C@@H]([C@@H]3CN1)[C@H]2Cc1ccc(O)cc1 (relative stereo) [IF-708]	< 5 µM	–
CC(C)CCNC(=O)[C@@]12C[C@@H]3CN(CC4CCCCC4)[C@@H]([C@@H]3CN1)[C@H]2Cc1ccc(O)cc1 (relative stereo) [IF-709]	10 to 30 µM	–
O=C(NCCc1ccccc1)[C@@]12C[C@@H]3CN(CC4CCCCC4)[C@@H]([C@@H]3CN1)[C@H]2Cc1ccccc1 (relative stereo) [IF-710]	< 5 µM	–
CC(C)C[C@@H]1[C@@H]2[C@@H]3CN[C@@]1(C(=O)NCCc1ccccc1)C[C@@H]3CN2CC1CCCCC1 (relative stereo) [IF-711]	10 to 30 µM	–
CC(C)C[C@@H]1[C@@H]2[C@@H]3CN[C@@]1(C(=O)NCCc1ccccc1)C[C@@H]3CN2Cc1ccc(F)cc1 (relative stereo) [IF-714]	< 5 µM	–
O=C(NCCc1ccccc1)[C@@]12C[C@@H]3CN(Cc4ccc(F)cc4)[C@@H]([C@@H]3CN1)[C@H]2Cc1ccc(O)cc1 (relative stereo) [IF-715]	< 5 µM	–
CC(C)CC[C@@H]1[C@@H]2[C@@H]3CN[C@@]1(C(=O)NCCc1ccccc1)C[C@@H]3CN2CC1CCCCC1 (relative stereo) [IF-717]	< 5 µM	–
O=C(NCCc1ccccc1)[C@@]12C[C@@H]3CN(CC4CCCCC4)[C@@H]([C@@H]3CN1)[C@H]2Cc1cccc2ccccc12 (relative stereo) [IF-718]	< 5 µM	–
CC(C)C[C@@H]1[C@@H]2[C@@H]3CN[C@@]1(C(=O)NCCc1ccccc1)C[C@@H]3CN2Cc1ccccc1 (relative stereo) [IF-721]	< 5 µM	–
O=C(NCCc1ccccc1)[C@@]12C[C@@H]3CN(Cc4ccccc4)[C@@H]([C@@H]3CN1)[C@H]2Cc1ccc(O)cc1 (relative stereo) [IF-722]	< 5 µM	–
CC(C)CC[C@@H]1[C@@H]2[C@@H]3CN[C@@]1(C(=O)NCCc1ccccc1)C[C@@H]3CN2Cc1ccccc1 (relative stereo) [IF-723]	10 to 30 µM	–
CC(C)C[C@@H]1[C@@H]2[C@@H]3CN[C@@]1(C(=O)NCCc1ccccc1)C[C@@H]3CN2CC(C)C (relative stereo) [IF-725]	10 to 30 µM	–
CC(C)C[C@@H]1[C@@H]2[C@@H]3CN[C@@]1(C(=O)NCc1cccc4ccccc14)C[C@@H]3CN2CC(C)C (relative stereo) [IF-726]	10 to 30 µM	–
CC(C)CC[C@@H]1[C@@H]2[C@@H]3CN[C@@]1(C(=O)NCCc1ccccc1)C[C@@H]3CN2CC(C)C (relative stereo) [IF-727]	< 5 µM	–
CC(C)CCN1C[C@H]2C[C@]3(C(=O)NCc4ccccc4)NC[C@H]2[C@H]1[C@H]3CC(C)C (relative stereo) [IF-733]	< 5 µM	–
CC(C)CCN1C[C@H]2C[C@]3(C(=O)NCC(C)C)NC[C@H]2[C@H]1[C@H]3Cc1cccc2ccccc12 (relative stereo) [IF-734]	< 5 µM	–
CC(C)CCN1C[C@H]2C[C@]3(C(=O)NCC(C)C)NC[C@H]2[C@H]1[C@H]3Cc1ccccc1 (relative stereo) [IF-735]	10 to 30 µM	–

Compound	IC50 (read-out: Anti-rabies activity)	IC50 (read-out: IC50)
CC(C)CNC(=O)[C@@]12C[C@@H]3CN(CCc4ccccc4)[C@@H]([C@@H]3CN1)[C@H]2CC(C)C (relative stereo) [IF-738]	10 to 30 µM	–
CC(C)CNC(=O)[C@@]12C[C@@H]3CN(Cc4cccc5ccccc45)[C@@H]([C@@H]3CN1)[C@H]2CC(C)C (relative stereo) [IF-739]	< 5 µM	–
CC(C)CC[C@@H]1[C@@H]2[C@@H]3CN[C@@]1(C(=O)NCc1ccccc1)C[C@@H]3CN2CC1CCCCC1 (relative stereo) [IF-740]	10 to 30 µM	–
CC(C)CNC(=O)[C@@]12C[C@@H]3CN(CC4CCCCC4)[C@@H]([C@@H]3CN1)[C@H]2CC(C)C (relative stereo) [IF-742]	10 to 30 µM	–
CC(C)CC[C@@H]1[C@@H]2[C@@H]3CN[C@@]1(C(=O)NCc1ccccc1)C[C@@H]3CN2Cc1ccc(F)cc1 (relative stereo) [IF-743]	10 to 30 µM	–
CC(C)CCNC(=O)[C@@]12C[C@@H]3CN(CCc4ccccc4)[C@@H]([C@@H]3CN1)[C@H]2Cc1ccccc1 (relative stereo) [IF-744]	< 5 µM	–
CC(C)CN1C[C@H]2C[C@]3(C(=O)NCc4ccccc4)NC[C@H]2[C@H]1[C@H]3Cc1cccc2ccccc12 (relative stereo) [IF-753]	10 to 30 µM	–
O=C(NCc1cccc2ccccc12)[C@@]12C[C@@H]3CN(CCO)[C@@H]([C@@H]3CN1)[C@H]2Cc1ccccc1 (relative stereo) [IF-758]	< 5 µM	–
CC(C)CN1C[C@H]2C[C@]3(C(=O)NCc4cccc5ccccc45)NC[C@H]2[C@H]1[C@H]3Cc1cccc2ccccc12 (relative stereo) [IF-778]	< 5 µM	–
O=C(NCc1cccc2ccccc12)[C@@]12C[C@@H]3CN(Cc4ccc(O)cc4)[C@@H]([C@@H]3CN1)[C@H]2Cc1cccc2ccccc12 (relative stereo) [IF-779]	10 to 30 µM	–
CC(C)NC(=O)[C@@]12C[C@@H]3CN(Cc4cccc5ccccc45)[C@@H]([C@@H]3CN1)[C@H]2CCc1ccccc1 (relative stereo) [IF-789]	10 to 30 µM	–
CC(C)C[C@@H]1[C@@H]2[C@@H]3CN[C@@]1(C(=O)NCc1cccc4ccccc14)C[C@@H]3CN2Cc1ccccc1 (relative stereo) [IF-837]	5 to 10 µM	–
CC(C)C[C@@H]1[C@@H]2[C@@H]3CN[C@@]1(C(=O)NCc1ccc(C(F)(F)F)cc1)C[C@@H]3CN2Cc1ccccc1 (relative stereo) [IF-838]	10 to 30 µM	–
CC(C)CNC(=O)[C@]12N=C[C@@H]3C[C@H]1CN(Cc1ccccc1)[C@H]2[C@@H]3CC(C)C (relative stereo) [IIB-4, (3S*,3aS*,6R*,7R*,7aS*)-1-benzyl-N,7-diisobutyl-1,2,3,6,7,7a-hexahydro-3aH-3,6-methanopyrrolo[3,2-b]pyridine-3a-carboxamide]	5 to 10 µM	8.9 µM
Cc1ccc(CNC(=O)[C@@]23C[C@@H]4CN(CC(C)C)[C@@H]([C@@H]4C=N2)[C@H]3Cc2ccccc2)cc1 (relative stereo) [IIF-16]	10 to 30 µM	28.7 µM
CC(C)CCN1C[C@H]2C[C@]3(C(=O)NCc4cccc(Cl)c4)N=C[C@H]2[C@H]1[C@H]3Cc1ccccc1 (relative stereo) [IIF-325]	< 5 µM	–
CC(C)CCN1C[C@H]2C[C@]3(C(=O)NCc4ccc(F)cc4)N=C[C@H]2[C@H]1[C@H]3Cc1ccccc1 (relative stereo) [IIF-327]	< 5 µM	–
Cc1ccc(CNC(=O)[C@@]23C[C@@H]4CN(CCC(C)C)[C@@H]([C@@H]4C=N2)[C@H]3Cc2ccccc2)cc1 (relative stereo) [IIF-328]	< 5 µM	–
